Biological target: T1, Thrombus (Rattus norvegicus, UniProt P02680+P06399+P14480)
T1 construct: thrombin cleaves fibrinopeptides on fibrinogen resulting in an end-to-end polymerization to give the polymer fibrin; A day old autologous blood clot was injected into the right internal carotid artery; from tissue; host or cells: autologous blood clot in the right internal carotid artery of Wistar rats
T1 sequence (P06399 37-550 isoform P06399-2 limits assumed): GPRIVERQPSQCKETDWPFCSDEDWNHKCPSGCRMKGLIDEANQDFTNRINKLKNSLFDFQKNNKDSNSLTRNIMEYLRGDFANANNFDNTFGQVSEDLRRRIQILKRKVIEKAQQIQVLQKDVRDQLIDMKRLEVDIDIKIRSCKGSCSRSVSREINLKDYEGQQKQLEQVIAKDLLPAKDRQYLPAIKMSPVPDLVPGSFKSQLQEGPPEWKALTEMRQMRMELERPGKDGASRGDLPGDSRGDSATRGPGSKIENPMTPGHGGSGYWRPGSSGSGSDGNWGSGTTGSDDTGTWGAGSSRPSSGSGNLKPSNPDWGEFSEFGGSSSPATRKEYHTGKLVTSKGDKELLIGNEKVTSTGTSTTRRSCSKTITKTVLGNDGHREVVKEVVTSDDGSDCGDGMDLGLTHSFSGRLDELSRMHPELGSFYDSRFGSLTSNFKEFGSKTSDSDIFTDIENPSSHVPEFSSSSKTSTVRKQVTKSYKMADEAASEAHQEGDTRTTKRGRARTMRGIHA
T1 sequence (P14480 33-479 limits assumed): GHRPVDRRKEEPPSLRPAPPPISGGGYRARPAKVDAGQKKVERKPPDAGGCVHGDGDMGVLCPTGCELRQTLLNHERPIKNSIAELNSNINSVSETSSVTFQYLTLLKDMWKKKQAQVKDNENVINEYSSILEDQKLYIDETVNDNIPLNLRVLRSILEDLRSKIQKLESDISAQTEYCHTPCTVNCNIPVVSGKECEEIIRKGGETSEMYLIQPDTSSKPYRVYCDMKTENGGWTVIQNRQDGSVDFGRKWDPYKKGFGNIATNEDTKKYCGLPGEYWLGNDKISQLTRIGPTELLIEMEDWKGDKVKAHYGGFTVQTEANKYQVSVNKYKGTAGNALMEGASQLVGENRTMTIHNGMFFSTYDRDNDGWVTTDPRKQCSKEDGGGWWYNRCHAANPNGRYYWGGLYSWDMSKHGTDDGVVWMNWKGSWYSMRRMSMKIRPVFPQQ
T1 sequence (P02680 26-437 isoform P02680-2 limits assumed): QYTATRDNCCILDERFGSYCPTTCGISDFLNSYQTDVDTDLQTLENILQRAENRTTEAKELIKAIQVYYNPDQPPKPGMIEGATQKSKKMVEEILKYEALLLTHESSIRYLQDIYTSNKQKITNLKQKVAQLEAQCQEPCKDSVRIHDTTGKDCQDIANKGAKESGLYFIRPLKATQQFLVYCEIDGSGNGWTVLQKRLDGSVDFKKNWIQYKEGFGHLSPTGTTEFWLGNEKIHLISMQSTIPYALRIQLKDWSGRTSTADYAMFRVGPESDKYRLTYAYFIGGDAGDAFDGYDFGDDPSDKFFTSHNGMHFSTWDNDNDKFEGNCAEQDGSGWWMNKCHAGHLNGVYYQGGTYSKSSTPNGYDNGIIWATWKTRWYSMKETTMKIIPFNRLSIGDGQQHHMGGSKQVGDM
Assay: MR-PET imaging of occlusive thrombus in right internal carotid artery of rats
Type: in vivo
Conditions: for PET time-activity curve in thrombus: over 90 min, contralateral vessel signal decays with time; for Thrombus visibility on black-blood T1-weighted MR post injection: six animals imaged
Procedure: All animal studies were approved by the Subcommittee on Research Animal Care at Massachusetts General Hospital. The occlusive thrombus model was described previously (Zhang R L, Chopp M, Zhang Z G, Jiang Q, and Ewing J R., Brain Res. 1997 766(1-2):83-92). Briefly, male Wistar rats (350-400 g, n=8; Charles River Laboratories, Wilmington, Mass.) were anaesthetized with isoflurane (1-2% in 70% N2O and 30% O2) and body temperature was kept at 37.5° C. A day old autologous blood clot was injected into the right internal carotid artery (ICA) at the level of the middle cerebral artery (MCA). The femoral vein was cannulated for intravenous delivery of the contrast agent. Simultaneous PET and MR were acquired on a clinical 3T MRI-BrainPET scanner using a home-built receive surface coil and a CP transmit coil. After baseline MR scans were acquired, the dual MR-PET probe was injected at a dose of 11.5 μmol/kg (46 μmol Gd/kg, total activity=19.6±5.9 MBq). The animals were sacrificed 2 h post-injection. In total, six animals underwent imaging while in two additional animals only biodistribution data was collected.
The list-mode emission data from PET were rebinned in the sinogram space for fast reconstruction. The uncorrected PET volume was first reconstructed and binary segmented based on an empirically determined threshold in soft tissue and air. A uniform linear attenuation coefficient (0.096 cm^−1, corresponding to water at 511 keV) was assigned to all soft tissue voxels and the resulting attenuation map (combined with the coil attenuation map) was forward projected to derive the attenuation correction factors in sinogram space. A model-based approach was used to derive the scatter sinogram. The normalization was calculated from a 64 hr scan of a plane-source rotated in the FOV. The images were reconstructed with the ordinary Poisson ordered subsets expectation maximization (OP-OSEM) algorithm using 16 subsets and 6 iterations. The reconstructed volume consists of 153 slices with 256×256 pixels (1.25×1.25×1.25 mm^3). The spatial resolution at the center of the field of view is approximately 2.5 mm.
The emission data were recorded in list-mode format for approximately 90 min (9×10 min frames) after MR-PET probe administration. The data acquired in each individual frame were processed and images were reconstructed after acquisition for immediate analysis. Images were also reconstructed from the data acquired 30-90 minutes post injection. Additionally, thirty 3-minute frames were generated and the tracer uptake in structures of interest as a function of time was analyzed.
The MR imaging sequence included MP-RAGE and 3D T1-weighted gradient echo scans with and without inflow saturation. The latter were used for time of flight (TOF) angiography. The field of view scanned for the 3D sequences was 85×85 mm^2, with repetition time (TR), echo time (TE), and flip angle of 32 ms, 5.78 ms and 18°, respectively. […] For the MP-RAGE, the parameters used were inversion time TI=900 ms, TR/TE=2300/4.4, NEX=1, FOV=49×49 mm^2, matrix=192×192, slice thickness=0.26 mm for resolution=0.26 mm^3.
MR images were analyzed using OsiriX (www.osirix-viewer.com) by drawing regions of interest (ROI) in the thrombus, contralateral artery and adjacent tissue and quantifying signal intensity (SI). Noise was quantified as the standard deviation (SD) of the signal measured in the air outside the animal. Contrast to noise ratios (CNR) were calculated for the difference between tissue A and tissue B using the following equation (1). CNR(tissue A/tissue B)=[SI(tissue A)−SI(tissue B)]/SD(air) (1)
Signal intensity ratios (SIR) between the thrombus (ipsilateral) and contralateral vessel were calculated using equation (2) for images pre- and 10 min post-probe administration. SIR=[SI(ipsilateral)/SI(contralateral)]post/[SI(ipsilateral)/SI(contralateral)]pre (2) […]

- CNRthrombus:brain post probe (black-blood MR, 11.5 μmol/kg i.v., pre-injection −2.0±2.2, p<0.005): 13.0±2.0
- PET SIRipsi:contra (hyperintense lesion vs identical contralateral volume of interest, p<0.01): 1.85±0.48
- PET time-activity curve in thrombus: rapid and static uptake in the thrombus
- Thrombus visibility on black-blood T1-weighted MR post injection (listed as Gd3-EP-2104R-^64Cu): clearly visible
- MR SIRpost/SIRpre (thrombus vs contralateral vessel, pre and 10 min post probe, p<0.01): 1.71±0.35
Substance: Gd3-EP-2104R-Cu [Compound 21]
- PET time-activity curve in thrombus (listed as Gd3-EP-2104R-^64Cu): activity remains approximately constant over 90 min
- Thrombus visibility on black-blood T1-weighted MR post injection: now bright indicating the presence of thrombus
